In assay [1] the target is T1, Human CARM1 (PRMT4) (Homo sapiens, UniProt Q86X55).
T1 construct: Flag-CARM1-His was eluted with 200 ug/ml FLAG peptide in buffer A; made in house; host or cells: HEK 293F cells infected with recombinant baculovirus (pFastBacMam)
T1 sequence (Q86X55 1-585 isoform Q86X55-1): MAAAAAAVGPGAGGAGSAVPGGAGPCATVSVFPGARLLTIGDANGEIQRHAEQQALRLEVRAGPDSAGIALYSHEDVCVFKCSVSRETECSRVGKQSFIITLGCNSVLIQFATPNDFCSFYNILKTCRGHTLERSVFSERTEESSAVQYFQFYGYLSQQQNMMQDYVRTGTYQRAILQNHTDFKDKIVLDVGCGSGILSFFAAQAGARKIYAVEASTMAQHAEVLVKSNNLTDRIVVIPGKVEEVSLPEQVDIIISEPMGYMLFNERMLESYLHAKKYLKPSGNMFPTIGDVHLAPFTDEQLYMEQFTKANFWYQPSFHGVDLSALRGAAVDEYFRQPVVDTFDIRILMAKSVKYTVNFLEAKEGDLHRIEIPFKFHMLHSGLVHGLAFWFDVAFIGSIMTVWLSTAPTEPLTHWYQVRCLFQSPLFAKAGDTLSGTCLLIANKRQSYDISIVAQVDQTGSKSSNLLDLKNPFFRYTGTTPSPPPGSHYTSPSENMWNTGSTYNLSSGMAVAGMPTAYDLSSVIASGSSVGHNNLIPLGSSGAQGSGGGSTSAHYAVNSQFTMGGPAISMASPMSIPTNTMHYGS
In words: CARM1 enzyme assay on peptide substrates (3H-SAM Flashplate). The conditions noted are these: Biochemical assay; CARM1 0.25 nM, 3H-SAM 30 nM, peptide 250 nM; read-out: Biochem IC50. An excerpt:
S-adenosylmethionine (SAM), S-adenosylhomocysteine (SAH), bicine, Tween20, dimethylsulfoxide (DMSO), bovine skin gelatin (BSG), sodium butyrate and Tris(2-carboxyethyl)phosphine hydrochloride solution (TCEP) were purchased from Sigma-Aldrich at the highest level of purity possible. ^3H-SAM was purchase from American Radiolabeled Chemicals with a specific activity of 80 Ci/mmol. 384-well streptavidin Flashplates were purchased from PerkinElmer.
Peptide representative of human histone H3 residues 16-30 was synthesized with an N-terminal linker-affinity tag motif and a C-terminal amide cap by 21st Century Biochemicals. […] The sequence was Biot-Ahx-[…]-amide and contained a monomethylated arginine at position 26 (SEQ ID NO.:1).
The gene sequence encoding isoform1 containing a deletion of amino acids 539-561 was amplified subsequently and subcloned into pFastBacMam (Viva Biotech).
Recombinant baculovirus were generated according to Bac-to-Bac kit instructions (Life Technologies). Protein over-expression was accomplished by infecting exponentially growing HEK 293F cell culture at 1.3×10^6 cell/ml with virus (MOI=10) in the presence of 8 mM sodium butyrate. Infections were carried out at 37° C. for 48 hours, harvested by centrifugation, and stored at −80° C. for purification.
Column was washed with 500 mM NaCl in buffer A and Flag-CARM1-His was eluted with 200 ug/ml FLAG peptide in buffer A. Pooled fractions were dialyzed in 20 mM Tris, 150 mM NaCl, 5% glycerol and 1 mM DTT, pH 7.8.
The assays were all performed in a buffer consisting of 20 mM Bicine (pH=7.6), 1 mM TCEP, 0.005% BSG, and 0.002% Tween 20, prepared on the day of use. Compounds in 100% DMSO (1 ul) were spotted into a polypropylene 384-well V-bottom plates (Greiner) using a Platemate Plus outfitted with a 384-channel head (Thermo Scientific). DMSO (1 ul) was added to Columns 11, 12, 23, 24, rows A-H for the maximum signal control and 1 ul of SAH, a known product and inhibitor of CARM1, was added to columns 11, 12, 23, 24, rows I-P for the minimum signal control. A cocktail (40 ul) containing the CARM1 enzyme was added by Multidrop Combi (Thermo-Fisher). The compounds were allowed to incubate with CARM1 for 30 min at room temperature, then a cocktail (10 ul) containing ^3H-SAM and peptide was added to initiate the reaction (final volume=51 ul). The final concentrations of the components were as follows: CARM1 was 0.25 nM, ^3H-SAM was 30 nM, peptide was 250 nM, SAH in the minimum signal control wells was 1 mM, and the DMSO concentration was 2%. The assays were stopped by the addition of non-radiolabeled SAM (10 ul) to a final concentration of 300 uM, which dilutes the ^3H-SAM to a level where its incorporation into the peptide substrate is no longer detectable. 50 ul of the reaction in the 384-well polypropylene plate was then transferred to a 384-well Flashplate and the biotinylated peptides were allowed to bind to the streptavidin surface for at least 1 hour before being washed once with 0.1% Tween20 in a Biotek ELx405 plate washer. The plates were then read in a PerkinElmer TopCount plate reader to measure the quantity of ^3H-labeled peptide bound to the Flashplate surface, measured as disintegrations per minute (dpm) or alternatively, referred to as counts per minute (cpm).
where dpm=disintegrations per minute, cmpd=signal in assay well, and min and max are the respective minimum and maximum signal controls.
where top and bottom are the normally allowed to float, but may be fixed at 100 or 0 respectively in a 3-parameter fit. The Hill Coefficient normally allowed to float but may also be fixed at 1 in a 3-parameter fit. Y is the % inhibition and X is the compound concentration.

The test system of assay [2] is asymmetric di-methyl PABP1 in RKO cells. The assay can be described thus: RKO methylation assay: In Cell Western (ICW) for asymmetric di-methyl PABP1 (PABP1me2a). The conditions noted are these: Cellular-based (PABP1me2a) ICW (In Cell Western) assay. The text has this: RKO adherent cells were purchased from ATCC (American Type Culture Collection), Manassas, Va., USA. DMEM/Glutamax medium, penicillin-streptomycin, heat inactivated fetal bovine serum, 0.05% trypsin and D-PBS were purchased from Life Technologies, Grand Island, N.Y., USA. Odyssey blocking buffer, 800CW goat anti-rabbit IgG (H+L) antibody, and Licor Odyssey infrared scanner were purchased from Licor Biosciences, Lincoln, Nebr., USA. Asymmetric di-methyl PABP1 antibody was purchased from Cell Signaling Technology, Danvers, Mass., USA. Methanol was purchased from VWR, Franklin, Mass., USA. 10% Tween 20 was purchased from KPL, Inc., Gaithersburg, Md., USA. Paraformaldehyde (PFA) was purchased from EM Sciences. DRAQ5 was purchased from Biostatus Limited, Leicestershire, UK.
RKO adherent cells were maintained in growth medium (DMEM/Glutamax medium supplemented with 10% v/v heat inactivated fetal bovine serum and 100 units/mL penicillin-streptomycin) and cultured at 37° C. under 5% CO2.
Cell treatment, In Cell Western (ICW) for detection of asymmetric di-methyl PABP1 and DNA content: RKO cells were seeded in assay medium at a concentration of 30,000 cells per mL to a poly-D-lysine coated 384 well culture plate (BD Biosciences 356697) with 50 μL per well. Compound (100 nL) from a 96-well source plate was added directly to 384 well cell plate. Plates were incubated at 37° C., 5% CO2 for 48 hours. After two days of incubation, plates were brought to room temperature outside of the incubator for ten minutes and blotted on paper towels to remove cell media. Cells were fixed for 20 minutes at room temperature by adding 50 ul of 8% PFA followed by aspiration of supernatant with the Biotek EL406 plate washer. Cells were then permeabilized by addition of 50 μL of ice cold 100% methanol directly to each well and incubated for 30 min at room temperature. After 30 min, plates were transferred to a Biotek EL406 plate washer and washed 2 times with 100 μL per well of wash buffer (1×PBS). Next 60 μL per well of Odyssey blocking buffer (Odyssey Buffer with 0.1% Tween 20 (v/v)) were added to each plate and incubated 1 hour at room temperature. Blocking buffer was removed and 20 μL per well of primary antibody was added (asymmetric-methyl PABP1) diluted 1:400 in Odyssey buffer with 0.1% Tween 20 (v/v)) and plates were incubated overnight (16 hours) at 4° C. Plates were washed 5 times with 100 μL per well of wash buffer. Next 20 μL per well of secondary antibody was added (1:800 800CW goat anti-rabbit IgG (H+L) antibody, 1:2000 DRAQ5 in Odyssey buffer with 0.1% Tween 20 (v/v)) and incubated for 1 hour at room temperature. The plates were washed 5 times with 100 μL per well wash buffer then 2 times with 100 μL per well of water. Plates were allowed to dry at room temperature then imaged on the Licor Odyssey machine which measures integrated intensity at 700 nm and 800 nm wavelengths. Both 700 and 800 channels were scanned.
First, the ratio for each well was determined by:
Each plate included fourteen control wells of DMSO only treatment (minimum inhibition) as well as fourteen control wells for maximum inhibition treated with 20 μM of a reference compound. The average of the ratio values for each control type was calculated and used to determine the percent […] for each test well in the plate. Reference compound was serially diluted three-fold in DMSO for a total of nine test concentrations, beginning at 20 μM.
Percent inhibition was determined and IC50 curves were generated using triplicate wells per concentration of compound.

Each structure is given as a SMILES string.

The term IC50 denotes the concentration needed to halve the response being measured. As for `CNC[C@@H](O)COc1ccc(Cl)c(-c2nc(-c3c(C)noc3C)c(Cl)c(N3Cc4cnn(C)c4C3)n2)c1` [Example 11], the 50% inhibitory concentration (IC50) in assay [1] is 60.7 nM; in assay [2] (Homo sapiens, RKO, 48 h), greater than 20000 nM.

Consider `CNC[C@@H](O)COc1ccc(Cl)c(-c2nc(-c3c(C)noc3C)c(C)c(N3Cc4c(C)nn(C(C)C)c4C3)n2)c1` [Example 12], for which the concentration for half-maximal inhibition (IC50) in assay [1] is 4.1 nM; in assay [2] (Homo sapiens, RKO, 48 h), 81 nM. For `CNC[C@@H](O)COc1ccc(Cl)c(-c2nc(-c3c(C)noc3C)c(C)c(N3Cc4c(C)nn(CC(F)(F)F)c4C3)n2)c1` [Example 13], in that order: 3.6 nM and 74 nM. For `CNC[C@@H](O)COc1ccc(Cl)c(-c2nc(-c3c(C)noc3C)c(C)c(N3Cc4cc(C(F)(F)F)cnc4C3)n2)c1` [Example 14], in that order: 2.2 nM and 44 nM. As to `CNC[C@@H](O)COc1ccc(F)c(-c2nc(-c3c(C)noc3C)c(C)c(N3Cc4cn(C5CC5)nc4C3)n2)c1` [Example 15], the half-maximal inhibitory concentration (IC50) in assay [1] was determined as 1.9 nM; in assay [2] (Homo sapiens, RKO, 48 h), 140 nM. Turning to `CNC[C@@H](O)COc1ccc(F)c(-c2nc(-c3c(C)noc3C)c(C)c(N3Cc4cnn(C5CC5)c4C3)n2)c1` [Example 16], the IC50 amounted to 2.1 nM in assay [1] and 56 nM in assay [2] (Homo sapiens, RKO, 48 h). Regarding `CNC[C@@H](O)COc1ccc(F)c(-c2nc(-c3c(C)noc3C)c(C)c(N3Cc4cn(CC(F)(F)F)nc4C3)n2)c1` [Example 17], the IC50 in assay [1] was 2.4 nM; in assay [2] (Homo sapiens, RKO, 48 h) it was 162 nM. For `CNC[C@@H](O)COc1ccc(F)c(-c2nc(-c3c(C)noc3C)c(C)c(N3Cc4cnn(CC(F)(F)F)c4C3)n2)c1` [Example 18], in that order: 3.1 nM and 69 nM.

On to `CNC[C@@H](O)COc1ccc(Cl)c(-c2nc(-c3c(C)noc3C)c(C)c(N3CC4(CCC(F)CC4)C3)n2)c1` [Example 20], for which the 50% inhibitory concentration (IC50) stood at 7.4 nM in assay [1] and 125 nM in assay [2] (Homo sapiens, RKO, 48 h). With `CNC[C@@H](O)COc1ccc(C(F)(F)F)c(-c2nc(-c3c(C)noc3C)c(C)c(N3CC4(CCOCC4)C3)n2)c1` [Example 21], the IC50 in assay [1] turned out to be 16.6 nM; in assay [2] (Homo sapiens, RKO, 48 h) it was 179 nM. With `CNC[C@@H](O)COc1ccc(C(F)(F)F)c(-c2nc(-c3c(C)noc3C)c(C)c(N3Cc4cn(C(C)C)nc4C3)n2)c1` [Example 22], the half-inhibitory concentration (IC50) was determined as 6.3 nM in assay [1] and 181 nM in assay [2] (Homo sapiens, RKO, 48 h). In the case of `CNC[C@@H](O)COc1ccc(C(F)(F)F)c(-c2nc(-c3c(C)noc3C)c(C)c(N3Cc4cnn(C(C)C)c4C3)n2)c1` [Example 23], the IC50 in assay [1] turned out to be 4.7 nM; in assay [2] (Homo sapiens, RKO, 48 h), 111 nM. Taken in the same sequence, the figures for `CNC[C@@H](O)COc1ccc(C(F)(F)F)c(-c2nc(-c3c(C)noc3C)c(C)c(N3Cc4cccnc4C3)n2)c1` [Example 24] were 5.4 nM and 188 nM. For `CNC[C@@H](O)COc1ccc(Cl)c(-c2nc(-c3c(C)noc3C)c(C)c(N3CCC4(C3)OCCO4)n2)c1` [Example 25], in that order: 5.6 nM and 452 nM. Regarding `CNC[C@@H](O)COc1ccc(Cl)c(-c2nc(-c3c(C)noc3C)c(C)c(N3Cc4cnn(CC(F)F)c4C3)n2)c1` [Example 26], the half-inhibitory concentration (IC50) in assay [1] amounted to 3.4 nM; in assay [2] (Homo sapiens, RKO, 48 h), 66 nM. On to `CNC[C@@H](O)COc1ccc(Cl)c(-c2nc(-c3c(C)noc3C)c(C)c(N3Cc4cn(CC(F)F)nc4C3)n2)c1` [Example 27], for which the 50% inhibitory concentration (IC50) in assay [1] turned out to be 3.7 nM; in assay [2] (Homo sapiens, RKO, 48 h), 115 nM. For `CNC[C@@H](O)COc1ccc(Cl)c(-c2nc(-c3c(C)noc3C)c(C)c(N3Cc4cnn(C(C)C)c4C3)n2)c1` [Example 28], in that order: 3.2 nM and 41 nM.

On to `CNC[C@H](O)COc1ccc(Cl)c(-c2nc(-c3c(C)noc3C)c(C)c(N3CC4(CCN(C(=O)OC)CC4)C3)n2)c1` [Example 248], for which the half-maximal inhibitory concentration (IC50) in assay [2] (Homo sapiens, RKO, 48 h) stood at 294 nM. Same read-out and setting: to `CNC[C@@H](O)COc1ccc(Cl)c(-c2nc(-c3c(C)noc3C)c(C)c(N3CC4(CCN(C(=O)OC)CC4)C3)n2)c1` [Example 261] belongs 53.9 nM. The compound `CNC[C@@H](O)COc1ccc(Cl)c(-c2nc(-c3c(C)noc3C)c(C)c(N3CC4(CCN(C(=O)OC)CC4)C3)n2)c1` [Example 292] yielded an IC50 in assay [2] (48 hours) of 66.7 nM.

(Values after patent US20170305922A1, “CARM1 INHIBITORS AND USES THEREOF” (Epizyme, Inc., priority 2014, published 2017).)
